Laboratory results: patent publication US20080139620A1, “Pyrazole Derivatives For The Inhibition Of Cdk's And Gsk's” (ASTEX THERAPEUTICS LIMITED, priority 2005, published 2008)

Key:
[1] = tested on: human tumour derived cell lines; assay: Xenograft studies, human tumour derived cell lines implanted sub-cutaneously; type: in vivo, nude mice; settings: dosed orally
Text: These biomarkers include suppression of phosphorylation of substrates of the cyclin dependent kinases e.g. retinoblastoma protein.

[2] = tested on: HCT-116 cell line; assay: Anti-proliferative activity, Alamar Blue assay; type: cell-based, human; settings: for IC50: HCT-116 human colon carcinoma, 72 hours, read-out: HCT-116 cell proliferation IC50
Protocol: The anti-proliferative activities of compounds of the invention can be determined by measuring the ability of the compounds to inhibition of cell growth in a number of cell lines. […] The method is based on the ability of viable cells to reduce resazurin to its fluorescent product resorufin. For each proliferation assay cells are plated onto 96 well plates and allowed to recover for 16 hours prior to the addition of inhibitor compounds for a further 72 hours. […] In the case of the non-proliferating cell assay cells are maintained at confluence for 96 hour prior to the addition of inhibitor compounds for a further 72 hours. The number of viable cells is determined by Alamar Blue assay as before. Cell lines can be obtained from the ECACC (European Collection of cell Cultures).

[3] = Determination of oral bioavailability; type: in vivo; settings: BALB/c, mouse, plasma, mice, 5 mg/kg PO vs 1 mg/kg IV
Protocol: The oral bioavailability of the compounds of formula (I) may be determined as follows.
The test compound is administered as a solution both I.V. and orally to balb/c mice at the following dose level and dose formulations; • 1 mg/kg IV formulated in 10% DMSO/90% (2-hydroxypropyl)-β-cyclodextrin (25% w/v); and • 5 mg/kg PO formulated in 10% DMSO/20% water/70% PEG200.
At various time points after dosing, blood samples are taken in heparinised tubes and the plasma fraction is collected for analysis. The analysis is undertaken by LC-MS/MS after protein precipitation and the samples are quantified by comparison with a standard calibration line constructed for the test compound. The area under the curve (AUC) is calculated from the plasma level vs time profile by standard methods. The oral bioavailability as a percentage is calculated from the following equation: […]

[4] = molecular target: Activated CDK2/CyclinA (Homo sapiens, UniProt P24941); assay: Activated CDK2/CyclinA kinase inhibitory activity assay; type: biochemical
Protocol: Compounds of the invention were tested for kinase inhibitory activity using the following protocol.
The reaction is allowed to proceed for 2 to 4 hours before being stopped with an excess of ortho-phosphoric acid (5 μl at 2%). γ^33P-ATP which remains unincorporated into the histone H1 is separated from phosphorylated histone H1 on a Millipore MAPH filter plate. The wells of the MAPH plate are wetted with 0.5% orthophosphoric acid, and then the results of the reaction are filtered with a Millipore vacuum filtration unit through the wells. Following filtration, the residue is washed twice with 200 μl of 0.5% orthophosphoric acid. Once the filters have dried, 20 μl of Microscint 20 scintillant is added, and then counted on a Packard Topcount for 30 seconds.

[5] = molecular target: T1, GSK3-β (Homo sapiens, UniProt P49841); assay: GSK3-B kinase inhibitory activity assay; type: biochemical; settings: read-out: GSK3β IC50
T1 construct: purchased Upstate Discovery
T1 sequence (P49841 whole entry): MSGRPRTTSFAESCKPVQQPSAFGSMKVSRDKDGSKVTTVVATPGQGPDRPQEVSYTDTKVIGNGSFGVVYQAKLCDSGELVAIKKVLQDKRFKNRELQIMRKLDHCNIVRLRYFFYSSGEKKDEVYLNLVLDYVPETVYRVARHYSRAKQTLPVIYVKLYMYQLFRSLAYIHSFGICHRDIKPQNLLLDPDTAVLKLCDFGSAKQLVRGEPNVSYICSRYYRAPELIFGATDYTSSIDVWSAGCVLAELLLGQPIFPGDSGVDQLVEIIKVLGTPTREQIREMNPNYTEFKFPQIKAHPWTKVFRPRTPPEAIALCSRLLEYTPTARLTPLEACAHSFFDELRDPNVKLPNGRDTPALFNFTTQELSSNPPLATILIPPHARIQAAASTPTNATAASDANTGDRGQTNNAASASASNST
Protocol: The reaction is allowed to proceed for 3 hours (GSK3-β) before being stopped with an excess of ortho-phosphoric acid (5 μl at 2%). The filtration procedure is as for Activated CDK2/CyclinA assay above.

| IC50 [5] [nM] | IC50 [4] [nM] | selectivity for CDK inhibition over GSK3β [4] [fold] | Compound | tumour biomarkers (phosphorylation of CDK substrates e.g. retinoblastoma protein) ([1]; nude mice xenografts) | tumour growth in xenografts ([1]; nude mice, sub-cutaneous xenografts) | IC50 [2] [nM] | anti-proliferative potency on HCT-116 compared to difluoro-analogue ([2]; human colon cancer HCT-116 cell line) | bioavailability [3] [%] | in vitro kinase (CDK2) inhibitory activity compared to difluoro-analogue [4] |
| --- | --- | --- | --- | --- | --- | --- | --- | --- | --- |
| – | – | – | CS(=O)(=O)N1CCC(NC(=O)c2n[nH]cc2NC(=O)c2c(Cl)cccc2Cl)CC1 [Example 1, 4-(2,6-dichloro-benzoylamino)-1H-pyrazole-3-carboxylic acid (1-methanesulphonyl-piperidin-4-yl)-amide] | inhibition of the tumour biomarkers | inhibition of tumour growth | 110 | 6-7 fold | 40 to 50 | greater in vitro kinase (CDK2) inhibitory activity |
| 14 | 2.2 | ~6 | CS(=O)(=O)N1CCC(NC(=O)c2n[nH]cc2NC(=O)c2c(F)cccc2F)CC1 [Example 131 of PCT/GB2004/003179] | – | – | 740 | – | – | – |
